# Columns and labels:
# [1] = target: T1, CCR1 (Homo sapiens, UniProt P32246); assay: Chemotaxis assay (Boyden chamber, MIP-1α induced migration); assay type: cell-based; set-up: THP-1 cells (ATCC TIB-202), primary human monocytes, or primary lymphocytes, isolated by standard techniques can then be added to the upper chambers; endogenous in cells; host or cells: THP-1 cells (ATCC TIB-202), primary human monocytes or primary lymphocytes; details: statement in words
# T1 sequence (P32246 1-355): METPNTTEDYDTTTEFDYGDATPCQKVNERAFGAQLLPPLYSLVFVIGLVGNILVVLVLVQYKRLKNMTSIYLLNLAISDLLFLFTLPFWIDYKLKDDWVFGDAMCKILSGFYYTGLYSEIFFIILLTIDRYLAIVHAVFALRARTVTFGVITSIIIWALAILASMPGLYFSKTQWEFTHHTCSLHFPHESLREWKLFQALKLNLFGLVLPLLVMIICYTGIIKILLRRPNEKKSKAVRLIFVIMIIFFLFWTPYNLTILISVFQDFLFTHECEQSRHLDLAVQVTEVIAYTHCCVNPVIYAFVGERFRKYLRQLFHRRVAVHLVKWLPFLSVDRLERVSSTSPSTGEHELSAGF
# Text: The activity of the compounds of the invention can be assessed according to procedures know to those of ordinary skill in the art. Examples of recognized methods for determining CCR1 induced migration can be found in Coligan, J. E., Kruisbeek, A. M., Margulies, D. H., Shevach, E. M., Strober, W. editors: Current Protocols In Immunology, 6.12.1-6.12.3. (John Wiley and Sons, NY, 1991). One specific example of how to determine the activity of a compound for inhibiting migration is described in detail below.
# The ability of compounds to inhibit the chemotaxis to various chemokines can be evaluated using standard 48 or 96 well Boyden Chambers with a 5 micron polycarbonate filter. […] The amount of agonist chosen is that determined to give the maximal amount of chemotaxis in this system (e.g., 1 nM for MIP-1α should be adequate). […]
# After a suitable incubation period at 37 degrees centigrade (e.g. 3.5 hours for THP-1 cells, 90 minutes for primary monocytes), the chamber is removed, the cells in the upper chamber aspirated, the upper part of the filter wiped and the number of cells migrating can be determined according to the following method.
# For THP-1 cells, the chamber (a 96 well variety manufactured by Neuroprobe) can be centrifuged to push cells off the lower chamber and the number of cells can be quantitated against a standard curve by a color change of the dye fluorocein diacetate. […]
# [2] = target: T1, CCR1; assay: Inhibition of MIP-1α (CCL3) binding to its receptor CCR1; details: CCR1 found on inflammatory and immunomodulatory cells; statement in words
smiles,measurement,setting,value
"C[C@@H]1CN(Cc2ccc(F)cc2)[C@@H](C)CN1C(=O)COc1ccc(Cl)cc1CS(=O)(=O)O [(5-Chloro-2-{2-[4-(4-fluoro-benzyl)-(2R,5S)-2,5-dimethyl-piperazin-1-yl]-2-oxo-ethoxy}-phenyl)-methanesulfonic acid]",inhibition of MIP-1α (and related chemokines) induced chemotaxis of THP-1 cells and human leukocytes,[1],inhibits
same,inhibition of MIP-1α (CCL3) binding to its receptor CCR1,[2],potent inhibitor

# — patent US20050119275A1, “Salt and crystal forms of (5-chloro-2-{2-[4-(4-fluoro-benzyl)-(2R,5S)-2,5-dimethyl-piperazin-1-yl]-2-oxo-ethoxy}-phenyl)-methanesulfonic acid” (Pfizer Inc., priority 2003, published 2005)
